From PubChem BioAssay AID1259407 (Chemical Carcinogenesis Research Information System (CCRIS), 2018)
Activity calls are given as the source filed them. How the calls were made is not given here.

System: CCRIS mutagenicity, Ames/micronucleus/aberration tests
Test: CCRIS mutagenicity studies
[1] = Test System: AMES SALMONELLA TYPHIMURIUM, Strain/Indicator: TA98, Metabolic Activation: NONE, Method: STANDARD PLATE
[2] = Test System: AMES SALMONELLA TYPHIMURIUM, Strain/Indicator: TA100, Metabolic Activation: NONE, Method: PREINCUBATION
[3] = Test System: AMES SALMONELLA TYPHIMURIUM, Strain/Indicator: TA100, Metabolic Activation: NONE, Method: STANDARD PLATE
[4] = Test System: AMES SALMONELLA TYPHIMURIUM, Strain/Indicator: TA1535, Metabolic Activation: NONE, Method: STANDARD PLATE
[5] = Test System: AMES SALMONELLA TYPHIMURIUM, Strain/Indicator: TA1537, Metabolic Activation: NONE, Method: STANDARD PLATE
[6] = Test System: AMES SALMONELLA TYPHIMURIUM, Strain/Indicator: TA1538, Metabolic Activation: NONE, Method: STANDARD PLATE

## C=C(C)C(=O)OCCCC
Test System: AMES SALMONELLA TYPHIMURIUM, Strain/Indicator: TA98, Metabolic Activation: HAMSTER, LIVER, S-9, AROCLOR 1254 (10%), Method: PREINCUBATION
  mutagenic call: inactive; negative
Test System: AMES SALMONELLA TYPHIMURIUM, Strain/Indicator: TA98, Metabolic Activation: NONE, Method: PREINCUBATION
  mutagenic call: inactive; negative
[1]
  mutagenic call: inactive; negative
Test System: AMES SALMONELLA TYPHIMURIUM, Strain/Indicator: TA98, Metabolic Activation: RAT LIVER S-9, PHENOBARBITAL AND BETA-NAPHTHOFLAVONE, Method: PREINCUBATION
  mutagenic call: inactive; negative
Test System: AMES SALMONELLA TYPHIMURIUM, Strain/Indicator: TA98, Metabolic Activation: RAT, LIVER, S-9, AROCLOR 1254 (10%), Method: PREINCUBATION
  mutagenic call: inactive; negative
Test System: AMES SALMONELLA TYPHIMURIUM, Strain/Indicator: TA98, Metabolic Activation: RAT, LIVER, S-9, AROCLOR 1254, Method: STANDARD PLATE
  mutagenic call: inactive; negative
Test System: AMES SALMONELLA TYPHIMURIUM, Strain/Indicator: TA98, Metabolic Activation: RAT, LIVER, S-9, SODIUM PHENOBARBITAL, Method: STANDARD PLATE
  mutagenic call: inactive; negative
Test System: AMES SALMONELLA TYPHIMURIUM, Strain/Indicator: TA100, Metabolic Activation: HAMSTER, LIVER, S-9, AROCLOR 1254 (10%), Method: PREINCUBATION
  mutagenic call: inactive; negative
[2]
  mutagenic call: inactive; negative
[3]
  mutagenic call: inactive; negative
Test System: AMES SALMONELLA TYPHIMURIUM, Strain/Indicator: TA100, Metabolic Activation: RAT LIVER S-9, PHENOBARBITAL AND BETA-NAPHTHOFLAVONE, Method: PREINCUBATION
  mutagenic call: inactive; negative
Test System: AMES SALMONELLA TYPHIMURIUM, Strain/Indicator: TA100, Metabolic Activation: RAT, LIVER, S-9, AROCLOR 1254 (10%), Method: PREINCUBATION
  mutagenic call: inactive; negative
Test System: AMES SALMONELLA TYPHIMURIUM, Strain/Indicator: TA100, Metabolic Activation: RAT, LIVER, S-9, AROCLOR 1254, Method: STANDARD PLATE
  mutagenic call: inactive; negative
Test System: AMES SALMONELLA TYPHIMURIUM, Strain/Indicator: TA100, Metabolic Activation: RAT, LIVER, S-9, SODIUM PHENOBARBITAL, Method: STANDARD PLATE
  mutagenic call: inactive; negative
Test System: AMES SALMONELLA TYPHIMURIUM, Strain/Indicator: TA1535, Metabolic Activation: HAMSTER, LIVER, S-9, AROCLOR 1254 (10%), Method: PREINCUBATION
  mutagenic call: inactive; negative
Test System: AMES SALMONELLA TYPHIMURIUM, Strain/Indicator: TA1535, Metabolic Activation: NONE, Method: PREINCUBATION
  mutagenic call: inactive; negative
[4]
  mutagenic call: inactive; negative
Test System: AMES SALMONELLA TYPHIMURIUM, Strain/Indicator: TA1535, Metabolic Activation: RAT LIVER S-9, PHENOBARBITAL AND BETA-NAPHTHOFLAVONE, Method: PREINCUBATION
  mutagenic call: inactive; negative
Test System: AMES SALMONELLA TYPHIMURIUM, Strain/Indicator: TA1535, Metabolic Activation: RAT, LIVER, S-9, AROCLOR 1254 (10%), Method: PREINCUBATION
  mutagenic call: inactive; negative
Test System: AMES SALMONELLA TYPHIMURIUM, Strain/Indicator: TA1535, Metabolic Activation: RAT, LIVER, S-9, AROCLOR 1254, Method: STANDARD PLATE
  mutagenic call: inactive; negative
Test System: AMES SALMONELLA TYPHIMURIUM, Strain/Indicator: TA1535, Metabolic Activation: RAT, LIVER, S-9, SODIUM PHENOBARBITAL, Method: STANDARD PLATE
  mutagenic call: inactive; negative
Test System: AMES SALMONELLA TYPHIMURIUM, Strain/Indicator: TA1537, Metabolic Activation: HAMSTER, LIVER, S-9, AROCLOR 1254 (10%), Method: PREINCUBATION
  mutagenic call: inactive; negative
Test System: AMES SALMONELLA TYPHIMURIUM, Strain/Indicator: TA1537, Metabolic Activation: NONE, Method: PREINCUBATION
  mutagenic call: inactive; negative
[5]
  mutagenic call: inactive; negative
Test System: AMES SALMONELLA TYPHIMURIUM, Strain/Indicator: TA1537, Metabolic Activation: RAT LIVER S-9, PHENOBARBITAL AND BETA-NAPHTHOFLAVONE, Method: PREINCUBATION
  mutagenic call: inactive; negative
Test System: AMES SALMONELLA TYPHIMURIUM, Strain/Indicator: TA1537, Metabolic Activation: RAT, LIVER, S-9, AROCLOR 1254 (10%), Method: PREINCUBATION
  mutagenic call: inactive; negative
Test System: AMES SALMONELLA TYPHIMURIUM, Strain/Indicator: TA1537, Metabolic Activation: RAT, LIVER, S-9, AROCLOR 1254, Method: STANDARD PLATE
  mutagenic call: inactive; negative
Test System: AMES SALMONELLA TYPHIMURIUM, Strain/Indicator: TA1537, Metabolic Activation: RAT, LIVER, S-9, SODIUM PHENOBARBITAL, Method: STANDARD PLATE
  mutagenic call: inactive; negative
[6]
  mutagenic call: inactive; negative
Test System: AMES SALMONELLA TYPHIMURIUM, Strain/Indicator: TA1538, Metabolic Activation: RAT, LIVER, S-9, AROCLOR 1254, Method: STANDARD PLATE
  mutagenic call: inactive; negative
Test System: AMES SALMONELLA TYPHIMURIUM, Strain/Indicator: TA1538, Metabolic Activation: RAT, LIVER, S-9, SODIUM PHENOBARBITAL, Method: STANDARD PLATE
  mutagenic call: inactive; negative
Test System: E.COLI, Strain/Indicator: WP2UVRA/PKM101, Metabolic Activation: NONE, Method: PREINCUBATION
  mutagenic call: inactive; negative
Test System: E.COLI, Strain/Indicator: WP2UVRA/PKM101, Metabolic Activation: RAT LIVER S-9, PHENOBARBITAL AND BETA-NAPHTHOFLAVONE, Method: PREINCUBATION
  mutagenic call: inactive; negative

## Cc1cc2ccc3cc4ccccc4c4ccc(c1)c2c34
Test System: AMES SALMONELLA TYPHIMURIUM, Strain/Indicator: TA100, Metabolic Activation: RAT, INTACT HEPATOCYTES, AROCLOR 1254, Method: PREINCUBATION
  mutagenic call: active; positive
Test System: AMES SALMONELLA TYPHIMURIUM, Strain/Indicator: TA100, Metabolic Activation: RAT, NADPH-FORTIFIED HOMOGENIZED HEPATOCYTES, AROCLOR 1254, Method: PREINCUBATION
  mutagenic call: active; positive

## CCOC(=O)Nc1ccc(SC[C@@H]2CO[C@@](Cn3ccnc3)(c3ccc(Cl)cc3Cl)O2)cc1
End Point: IN VIVO MICRONUCLEUS, Test System: BLOOD ERYTHROCYTES, Species: MOUSE, Strain/Sex: CD-1/MALE, Route: ORAL
  mutagenic call: active; positive (at 48 and 72 hr at higher dose)

## C[C@]12CC[C@@H]3c4cc(O)c(O)cc4CC[C@H]3[C@@H]1CC[C@@H]2O
End Point: In vitro micronucleus, Test System: Human lymphocytes, Metabolic Activation: None
  mutagenic call: active; positive only at 10 ug/ml in cytochalasin block micronuclei; no dose response
Test System: Ames Salmonella typhimurium, Strain/Indicator: TA98, Metabolic Activation: None, Method: Standard plate
  mutagenic call: inactive; negative
Test System: Ames Salmonella typhimurium, Strain/Indicator: TA98, Metabolic Activation: Rat, liver, S-9, Method: Standard plate
  mutagenic call: inactive; negative
Test System: Ames Salmonella typhimurium, Strain/Indicator: TA100, Metabolic Activation: None, Method: Standard plate
  mutagenic call: inactive; negative
Test System: Ames Salmonella typhimurium, Strain/Indicator: TA100, Metabolic Activation: Rat, liver, S-9, Method: Standard plate
  mutagenic call: inactive; negative

## O=NN(CC(=O)O)CC(=O)O
[1]
  mutagenic call: inactive; negative
Test System: AMES SALMONELLA TYPHIMURIUM, Strain/Indicator: TA98, Metabolic Activation: RAT, LIVER, S-9, Method: STANDARD PLATE
  mutagenic call: inactive; negative
[2]
  mutagenic call: active; positive
[3]
  mutagenic call: inactive; negative
Test System: AMES SALMONELLA TYPHIMURIUM, Strain/Indicator: TA100, Metabolic Activation: RAT, LIVER, S-9, Method: STANDARD PLATE
  mutagenic call: inactive; negative
[4]
  mutagenic call: inactive; negative
Test System: AMES SALMONELLA TYPHIMURIUM, Strain/Indicator: TA1535, Metabolic Activation: RAT, LIVER, S-9, Method: STANDARD PLATE
  mutagenic call: inactive; negative
[5]
  mutagenic call: inactive; negative
Test System: AMES SALMONELLA TYPHIMURIUM, Strain/Indicator: TA1537, Metabolic Activation: RAT, LIVER, S-9, Method: STANDARD PLATE
  mutagenic call: inactive; negative
[6]
  mutagenic call: inactive; negative
Test System: AMES SALMONELLA TYPHIMURIUM, Strain/Indicator: TA1538, Metabolic Activation: RAT, LIVER, S-9, Method: STANDARD PLATE
  mutagenic call: inactive; negative
